Here are results for 6 compounds from US6358973B1, “Benzazine derivatives as phosphodiesterase 4 inhibitors” (Zambon Group S.p.A., priority 1998, dated 2002).

For one data set, the target named is PDE 4 enzyme. Briefly: PDE 4 enzyme inhibition (SPA, Amersham kit). The conditions noted are these: PDE 4 purified from human PMNs; cAMP 1 μM; 40 minutes at 30° C.; 9 concentrations. It is filed as biochemical. The source says: Evaluation of the PDE 4 Enzyme Inhibition a) Purification of Human Polymorphonucleate Leukocytes
The polymorphonucleate leukocytes (PMNs) were isolated from peripheral blood of healthy volunteers according to what described by Boyum A., Scand. J. Immunol., 1976, 5th suppl., 9). Shortly, the isolation of the PMNs was effected by Ficoll-Paque gradient centrifugation followed by sedimentation on dextrane and the erythrocyte contamination was eliminated by hypotonic lysis. […]
b) PDE 4 Enzyme Purification
The human PMNs were re-suspended in TRIS/HCl buffer (10 mM pH 7.8) containing MgCl2 (5 mM), EGTA (4 mM), mercaptoethanol (5 mM), TRITON-X100 (1%), pepstatin A (1 μM), PMSF (100 μM) and leupeptin (1 μM), and homogenised by Polytron. […]
The enzyme activity was evaluated with an Amersham kit based on the SPA (Scintillation Proximity Assay) technique. […] The radioactivity due to the particles was measured in a β-emitting counter. The results are expressed as percent activity versus the control present in each experiment. The IC50 values were calculated over 9 concentrations equidistant in logarithmic scale using a 4-parameters logistic function by software.
Broadly, the IC50 is the midpoint of a concentration-inhibition curve. The low end stands for greater potency, the high end for weaker potency. `COc1ccc2c(c1CC1CCCC1)CCN=C2Cc1c(Cl)cncc1Cl` [Compound 20, 5-Cyclopentylmethyl-1-(3,5-dichloro-pyridin-4-ylmethyl)-6-methoxy-3,4-dihydro-isoquinoline] registered an IC50 of 35.9 ± 4.7 nM.

Tested on in a further data set: not given
Assay: not given
Conditions: not given
Broadly, the melting point is the temperature, or range, at which the solid turns liquid. Turning to `COc1ccc2c(c1)C(CC1CCCC1)CN=C2Cc1c(Cl)cncc1Cl.Cl.Cl` (stereo not drawn), the melting point was 162 to 164 °C (dec.). Consider `COc1cccc2c1C(Cc1c(Cl)cncc1Cl)=NCC2CC1CCCC1.Cl.Cl` (stereo not drawn), for which the melting point is 189 to 190 °C (dec.). `COc1ccc2c(c1)C(CCCCCCc1ccccc1)CN=C2Cc1c(Cl)cncc1Cl.Cl.Cl` (stereo not drawn): the melting point is 135 to 137 °C (dec.). Still for that read-out and setting: in the case of `COc1cccc2c1C(Cc1c(Cl)cncc1Cl)=NCC2CCCCCCc1ccccc1.Cl.Cl` (stereo not drawn) it was 117 to 119 °C (dec.); in that of `COc1ccc2c(c1)c(-c1ccccc1)cc(=O)n2Cc1c(Cl)cncc1Cl` [Compound 23, 1-(3,5-Dichloropyridin-4-ylmethyl)-6-methoxy-4-phenyl-1H-quinolin-2-one], 191 to 192 °C.
